Results from patent publication US9963434B2, “N-arylmethyl sulfonamide negative modulators of NR2A” (LUC THERAPEUTICS, priority 2013, dated 2018).
Read-outs that look alike come from different tables or passages of the source.

Biological target: NR1/NR2A (Homo sapiens (Human), UniProt Q05586+Q12879)
Assay: FDSS Ca2+ influx inhibition assay in HEK293 cells expressing NR1/NR2A
Format: cell-based
Conditions: 3 μM glutamate, 3 μM glycine, 1 mM Ca2+
Description: Cell Culture and plating: HEK293 cells expressing NR1/NR2A (Chantest, Cleveland, Ohio) were grown to 70-80% confluency as an adherent monolayer in standard tissue culture flasks at 37° C., 5% CO2 per supplier's instructions.
After induction, cell culture medium was removed and cells were rinsed once with Ca^2+ and Mg^2+-free Dulbecco's phosphate buffered saline. Cells were then removed from the flask using TrypLE™ Express (Life Technologies) according to the manufacturer's instructions and collected to 50 ml centrifuge tubes. Following two washes in Ca^2+/Mg^2+-free HBSS with 20 mM HEPES (HHnoCa), cells were counted and viability assessed using trypan blue. To load cells with Ca^2+-sensitive dye, they were resuspended in fluo-8 plus Component B (AAT Bioquest Products) diluted in HHnoCa and incubated 15 minutes at 37° C., followed by 30 minutes at room temp (in dark). Cells were then washed and resuspended in HHnoCa to remove extracellular dye and plated in 384-well plates (Falcon, uncoated) at 20,000-30,000 cells/well in a final volume of 25 μL/well.
FDSS Assay: To each well of the plate, 10 μL test compound, control (MK801) or HHnoCa buffer was added to a final concentration of 10 μM with a final concentration of DMSO of 0.1%. Following 10 minutes pre-incubation in the dark, plates are loaded onto the Hamamatsu FDSS 6000. After collecting baseline fluorescence images, 3 μM glutamate, 3 μM glycine, and 1 mM Ca^2+ in HHnoCa buffer is added to each well, and Ca^2+ is recorded for 3 minutes. Data were processed by computing ratio of fluorescence at the end of data collection to baseline fluorescence to assess degree of Ca^2+ influx inhibition relative to that observed in MK801.

[1] = inhibition relative to MK801, read-out: NR2A IC50

NR1/NR2A, sequence (Q12879 23-1464, other chains not shown): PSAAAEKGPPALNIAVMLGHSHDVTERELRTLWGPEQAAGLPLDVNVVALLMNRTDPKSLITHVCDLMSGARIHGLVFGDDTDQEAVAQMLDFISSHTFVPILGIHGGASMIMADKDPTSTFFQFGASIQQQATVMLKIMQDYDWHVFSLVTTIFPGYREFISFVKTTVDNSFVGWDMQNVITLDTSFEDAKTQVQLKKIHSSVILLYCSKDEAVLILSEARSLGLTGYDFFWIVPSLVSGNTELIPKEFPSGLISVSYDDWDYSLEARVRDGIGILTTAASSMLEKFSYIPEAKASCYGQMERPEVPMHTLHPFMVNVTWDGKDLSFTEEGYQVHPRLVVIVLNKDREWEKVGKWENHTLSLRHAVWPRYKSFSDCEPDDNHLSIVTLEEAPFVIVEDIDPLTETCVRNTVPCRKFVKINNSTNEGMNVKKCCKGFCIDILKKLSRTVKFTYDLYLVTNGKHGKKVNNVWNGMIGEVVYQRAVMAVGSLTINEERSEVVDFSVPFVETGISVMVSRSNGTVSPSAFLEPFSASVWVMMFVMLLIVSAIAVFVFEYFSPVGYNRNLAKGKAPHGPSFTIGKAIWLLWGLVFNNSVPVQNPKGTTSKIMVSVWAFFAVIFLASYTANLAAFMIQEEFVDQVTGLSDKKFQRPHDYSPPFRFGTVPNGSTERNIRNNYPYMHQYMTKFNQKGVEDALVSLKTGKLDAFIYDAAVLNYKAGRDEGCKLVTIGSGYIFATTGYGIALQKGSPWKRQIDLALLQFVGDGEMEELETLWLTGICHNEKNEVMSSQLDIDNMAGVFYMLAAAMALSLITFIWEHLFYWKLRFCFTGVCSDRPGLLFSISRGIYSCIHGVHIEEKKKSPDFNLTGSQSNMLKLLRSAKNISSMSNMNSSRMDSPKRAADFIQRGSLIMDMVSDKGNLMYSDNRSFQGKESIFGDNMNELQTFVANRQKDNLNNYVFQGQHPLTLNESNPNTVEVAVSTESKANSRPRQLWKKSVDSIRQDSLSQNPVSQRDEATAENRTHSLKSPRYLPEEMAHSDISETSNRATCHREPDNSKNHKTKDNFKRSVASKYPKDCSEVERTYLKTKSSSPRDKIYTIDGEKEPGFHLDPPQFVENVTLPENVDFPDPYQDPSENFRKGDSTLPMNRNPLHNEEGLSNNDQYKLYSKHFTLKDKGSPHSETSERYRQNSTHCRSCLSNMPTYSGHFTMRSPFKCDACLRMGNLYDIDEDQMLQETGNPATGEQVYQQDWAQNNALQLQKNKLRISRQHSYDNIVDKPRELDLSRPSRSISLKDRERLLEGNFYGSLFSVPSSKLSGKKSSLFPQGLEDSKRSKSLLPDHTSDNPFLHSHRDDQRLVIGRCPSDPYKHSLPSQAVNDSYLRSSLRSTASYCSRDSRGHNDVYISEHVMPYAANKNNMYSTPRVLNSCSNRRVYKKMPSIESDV

SMILES | IC50 [1] | IC50 (read-out: Binned Activity)
CC(=O)N1CCc2cc(S(=O)(=O)NCc3cnc(C(=O)NCc4cnc(C)s4)cn3)ccc21 [5-(1-acetyl-2,3-dihydro-1H-indole-5-sulfonamidomethyl)-N-[(2-methyl-1,3-thiazol-5-yl)methyl]pyrazine-2-carboxamide] | 10 µM | > 10 µM
CC(=O)N1CCc2cc(S(=O)(=O)NCc3ccc(C(=O)NCc4cnc(C)s4)nc3)ccc21 [5-(1-acetyl-2,3-dihydro-1H-indole-5-sulfonamidomethyl)-N-[(2-methyl-1,3-thiazol-5-yl)methyl]pyridine-2-carboxamide] | 10 µM | > 10 µM
Cc1ncc(CNC(=O)c2cnc(CNS(=O)(=O)c3cc4ccccc4s3)cn2)s1 [5-(1-benzothiophene-2-sulfonamidomethyl)-N-[(2-methyl-1,3-thiazol-5-yl)methyl]pyrazine-2-carboxamide] | 10 µM | > 10 µM
Cc1ncc(CNC(=O)c2ccc(CNS(=O)(=O)c3cc4ccccc4s3)cn2)s1 [5-(1-benzothiophene-2-sulfonamidomethyl)-N-[(2-methyl-1,3-thiazol-5-yl)methyl]pyridine-2-carboxamide] | 10 µM | > 10 µM
Cc1ncc(CNC(=O)c2ccc(CNS(=O)(=O)c3csc4ccccc34)cn2)s1 [5-(1-benzothiophene-3-sulfonamidomethyl)-N-[(2-methyl-1,3-thiazol-5-yl)methyl]pyridine-2-carboxamide] | 10 µM | > 10 µM
Cc1ncc(CNC(=O)c2ccc(CNS(=O)(=O)c3cccc4nsnc34)cn2)s1 [5-(2,1,3-benzothiadiazole-4-sulfonamidomethyl)-N-[(2-methyl-1,3-thiazol-5-yl)methyl]pyridine-2-carboxamide] | 10 µM | > 10 µM
Cc1ncc(CNC(=O)c2cnc(CNS(=O)(=O)c3ccc(Cl)nc3Cl)cn2)s1 [5-(2,6-dichloropyridine-3-sulfonamidomethyl)-N-[(2-methyl-1,3-thiazol-5-yl)methyl]pyrazine-2-carboxamide] | 10 µM | > 10 µM
Cc1ncc(CNC(=O)c2ccc(CNS(=O)(=O)c3ccc(Cl)nc3Cl)cn2)s1 [5-(2,6-dichloropyridine-3-sulfonamidomethyl)-N-[(2-methyl-1,3-thiazol-5-yl)methyl]pyridine-2-carboxamide] | 10 µM | > 10 µM
Cc1ncc(CNC(=O)c2cnc(CNS(=O)(=O)c3ccccc3F)c(C)n2)s1 [5-(2-fluorobenzenesulfon-amidomethyl)-6-methyl-N-[(2-methyl-1,3-thiazol-5-yl)methyl]pyrazine-2-carboxamide] | 10 µM | > 10 µM
Cc1ncc(CNC(=O)c2cnc(CNS(=O)(=O)c3ccccc3F)cn2)s1 [5-(2-fluorobenzenesulfon-amidomethyl)-N-[(2-methyl-1,3-thiazol-5-yl)methyl]pyrazine-2-carboxamide] | 10 µM | > 10 µM
Cc1ncc(CNC(=O)c2ccc(CNS(=O)(=O)c3ccccc3F)cn2)s1 [5-(2-fluorobenzenesulfon-amidomethyl)-N-[(2-methyl-1,3-thiazol-5-yl)methyl]pyridine-2-carboxamide] | 10 µM | > 10 µM
Cc1ncc(CNC(=O)c2cnc(CNS(=O)(=O)c3ccc(Cl)c(Cl)c3)c(C)n2)s1 [5-(3,4-dichlorobenzenesulfon-amidomethyl)-6-methyl-N-[(2-methyl-1,3-thiazol-5-yl)methyl]pyrazine-2-carboxamide] | – | 0.1 to 1 µM
Cc1ncc(CNC(=O)c2cnc(CNS(=O)(=O)c3ccc(Cl)c(Cl)c3)cn2)s1 [5-(3,4-dichlorobenzenesulfon-amidomethyl)-N-[(2-methyl-1,3-thiazol-5-yl)methyl]pyrazine-2-carboxamide] | 10 µM | > 10 µM
Cc1ncc(CNC(=O)c2ccc(CNS(=O)(=O)c3ccc(Cl)c(Cl)c3)cn2)s1 [5-(3,4-dichlorobenzenesulfon-amidomethyl)-N-[(2-methyl-1,3-thiazol-5-yl)methyl]pyridine-2-carboxamide] | – | 1 to 10 µM
Cc1ncc(CNC(=O)c2cnc(CNS(=O)(=O)c3ccc(F)c(F)c3)cn2)s1 [5-(3,4-difluorobenzenesulfon-amidomethyl)-N-[(2-methyl-1,3-thiazol-5-yl)methyl]pyrazine-2-carboxamide] | – | 0.1 to 1 µM
Cc1ncc(CNC(=O)c2ccc(CNS(=O)(=O)c3ccc(F)c(F)c3)cn2)s1 [5-(3,4-difluorobenzenesulfon-amidomethyl)-N-[(2-methyl-1,3-thiazol-5-yl)methyl]pyridine-2-carboxamide] | – | 0.1 to 1 µM

SMILES | IC50 [1] | IC50 (read-out: Binned Activity)
Cc1ncc(CNC(=O)c2cnc(CNS(=O)(=O)c3cc(Cl)cc(Cl)c3)c(C)n2)s1 [5-(3,5-dichlorobenzenesulfon-amidomethyl)-6-methyl-N-[(2-methyl-1,3-thiazol-5-yl)methyl]pyrazine-2-carboxamide] | 10 µM | > 10 µM
Cc1ncc(CNC(=O)c2cnc(CNS(=O)(=O)c3cc(Cl)cc(Cl)c3)cn2)s1 [5-(3,5-dichlorobenzenesulfon-amidomethyl)-N-[(2-methyl-1,3-thiazol-5-yl)methyl]pyrazine-2-carboxamide] | 10 µM | > 10 µM
Cc1ncc(CNC(=O)c2ccc(CNS(=O)(=O)c3cc(Cl)cc(Cl)c3)cn2)s1 [5-(3,5-dichlorobenzenesulfon-amidomethyl)-N-[(2-methyl-1,3-thiazol-5-yl)methyl]pyridine-2-carboxamide] | 10 µM | > 10 µM
Cc1ncc(CNC(=O)c2cnc(CNS(=O)(=O)c3cc(F)cc(F)c3)c(C)n2)s1 [5-(3,5-difluorobenzenesulfon-amidomethyl)-6-methyl-N-[(2-methyl-1,3-thiazol-5-yl)methyl]pyrazine-2-carboxamide] | – | 0.1 to 1 µM
Cc1ncc(CNC(=O)c2cnc(CNS(=O)(=O)c3cc(F)cc(F)c3)cn2)s1 [5-(3,5-difluorobenzenesulfon-amidomethyl)-N-[(2-methyl-1,3-thiazol-5-yl)methyl]pyrazine-2-carboxamide] | 10 µM | > 10 µM
Cc1ncc(CNC(=O)c2ccc(CNS(=O)(=O)c3cc(F)cc(F)c3)cn2)s1 [5-(3,5-difluorobenzenesulfon-amidomethyl)-N-[(2-methyl-1,3-thiazol-5-yl)methyl]pyridine-2-carboxamide] | 10 µM | > 10 µM
CCc1nc(C(=O)NCc2cnc(C)s2)cnc1CNS(=O)(=O)c1ccc(F)c(Cl)c1 [5-(3-chloro-4-fluorobenzenesulfon-amidomethyl)-6-ethyl-N-[(2-methyl-1,3-thiazol-5-yl)methyl]pyrazine-2-carboxamide] | – | < 0.1 µM
Cc1ncc(CNC(=O)c2cnc(CNS(=O)(=O)c3ccc(F)c(Cl)c3)c(C)n2)s1 [5-(3-chloro-4-fluorobenzenesulfon-amidomethyl)-6-methyl-N-[(2-methyl-1,3-thiazol-5-yl)methyl]pyrazine-2-carboxamide] | – | < 0.1 µM
O=C(NC1CCS(=O)(=O)C1)c1cnc(CNS(=O)(=O)c2ccc(F)c(Cl)c2)cn1 (stereo not drawn) [5-(3-chloro-4-fluorobenzenesulfon-amidomethyl)-N-(1,1-dioxo-1λ^6-thiolan-3-yl)pyrazine-2-carboxamide] | 10 µM | > 10 µM
O=C(NC1CCS(=O)(=O)C1)c1ccc(CNS(=O)(=O)c2ccc(F)c(Cl)c2)cn1 (stereo not drawn) [5-(3-chloro-4-fluorobenzenesulfon-amidomethyl)-N-(1,1-dioxo-1λ^6-thiolan-3-yl)pyridine-2-carboxamide] | 10 µM | > 10 µM
O=C(NCc1ccno1)c1ccc(CNS(=O)(=O)c2ccc(F)c(Cl)c2)cn1 [5-(3-chloro-4-fluorobenzenesulfon-amidomethyl)-N-(1,2-oxazol-5-ylmethyl)pyridine-2-carboxamide] | – | 1 to 10 µM
O=C(NCc1cocn1)c1cnc(CNS(=O)(=O)c2ccc(F)c(Cl)c2)cn1 [5-(3-chloro-4-fluorobenzenesulfon-amidomethyl)-N-(1,3-oxazol-4-ylmethyl)pyrazine-2-carboxamide] | 10 µM | > 10 µM
O=C(NCc1cocn1)c1ccc(CNS(=O)(=O)c2ccc(F)c(Cl)c2)cn1 [5-(3-chloro-4-fluorobenzenesulfon-amidomethyl)-N-(1,3-oxazol-4-ylmethyl)pyridine-2-carboxamide] | 10 µM | > 10 µM
O=C(NCc1cnco1)c1ccc(CNS(=O)(=O)c2ccc(F)c(Cl)c2)cn1 [5-(3-chloro-4-fluorobenzenesulfon-amidomethyl)-N-(1,3-oxazol-5-ylmethyl)pyridine-2-carboxamide] | – | 1 to 10 µM
O=C(NCc1nccs1)c1cnc(CNS(=O)(=O)c2ccc(F)c(Cl)c2)cn1 [5-(3-chloro-4-fluorobenzenesulfon-amidomethyl)-N-(1,3-thiazol-2-ylmethyl)pyrazine-2-carboxamide] | 10 µM | > 10 µM
O=C(NCc1nccs1)c1ccc(CNS(=O)(=O)c2ccc(F)c(Cl)c2)cn1 [5-(3-chloro-4-fluorobenzenesulfon-amidomethyl)-N-(1,3-thiazol-2-ylmethyl)pyridine-2-carboxamide] | – | 1 to 10 µM
